Consider 19 molecules from US20070254863A1 (priority 2006, published 2007).

Molecules are shown by their SMILES. Where two headings read alike, the source gives them in different places.

The target in assay [1] is human cannabinoid CB2 receptor (Homo sapiens, UniProt P34972). Description: biochemical. In kind it is binding. As to the method: 3. In Vitro Binding Affinity of the Test Compounds to CB2 Receptors
After incubation of a freshly prepared cell membrane preparation with the [^3H]-ligand, with or without the addition of the compounds described herein, separation of bound and free ligand is performed by filtration over glass-fiber filters. Radioactivity on the filter is measured by liquid scintillation counting.

Assay [2] deals with T1, hamster SUR1 (Cricetus cricetus, UniProt Q09427).
T1 construct: expressed in transfected cells; host or cells: COS-1 cells, transient (pcDNA vector)
Description: In vitro binding affinity to rodent KATP channels: SUR1 ([3H]glibenclamide displacement, COS cell membranes).

The target of assay [3] is rat SUR2A (Rattus norvegicus, UniProt Q63563). The assay can be described thus: In vitro binding affinity to rodent KATP channels: SUR2A ([3H]P1075 / [3H]glibenclamide displacement, COS cell membranes). The procedure, abridged: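 COS-cell membranes transiently expressing rat SUR2A incubated 1 h at room temperature in 50 mM Tris pH 7.4, ~0.7 mM free Mg2+, with 3 nM [3H]P1075 (wild type) or [3H]glibenclamide (SUR2AY1205S); filtration read-out. Ki from IC50, reported as pKi; 9-15 concentrations per curve.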

Where [4] appears, read: hamster SUR1 in COS cell membranes, read-out: Affinity to SUR 1 (converted).
Where [5] appears, read: cloned human CB2 receptor expressed in CHO cells, read-out: Affinity to CB2 (converted).

T1 sequence (Q09427 whole entry): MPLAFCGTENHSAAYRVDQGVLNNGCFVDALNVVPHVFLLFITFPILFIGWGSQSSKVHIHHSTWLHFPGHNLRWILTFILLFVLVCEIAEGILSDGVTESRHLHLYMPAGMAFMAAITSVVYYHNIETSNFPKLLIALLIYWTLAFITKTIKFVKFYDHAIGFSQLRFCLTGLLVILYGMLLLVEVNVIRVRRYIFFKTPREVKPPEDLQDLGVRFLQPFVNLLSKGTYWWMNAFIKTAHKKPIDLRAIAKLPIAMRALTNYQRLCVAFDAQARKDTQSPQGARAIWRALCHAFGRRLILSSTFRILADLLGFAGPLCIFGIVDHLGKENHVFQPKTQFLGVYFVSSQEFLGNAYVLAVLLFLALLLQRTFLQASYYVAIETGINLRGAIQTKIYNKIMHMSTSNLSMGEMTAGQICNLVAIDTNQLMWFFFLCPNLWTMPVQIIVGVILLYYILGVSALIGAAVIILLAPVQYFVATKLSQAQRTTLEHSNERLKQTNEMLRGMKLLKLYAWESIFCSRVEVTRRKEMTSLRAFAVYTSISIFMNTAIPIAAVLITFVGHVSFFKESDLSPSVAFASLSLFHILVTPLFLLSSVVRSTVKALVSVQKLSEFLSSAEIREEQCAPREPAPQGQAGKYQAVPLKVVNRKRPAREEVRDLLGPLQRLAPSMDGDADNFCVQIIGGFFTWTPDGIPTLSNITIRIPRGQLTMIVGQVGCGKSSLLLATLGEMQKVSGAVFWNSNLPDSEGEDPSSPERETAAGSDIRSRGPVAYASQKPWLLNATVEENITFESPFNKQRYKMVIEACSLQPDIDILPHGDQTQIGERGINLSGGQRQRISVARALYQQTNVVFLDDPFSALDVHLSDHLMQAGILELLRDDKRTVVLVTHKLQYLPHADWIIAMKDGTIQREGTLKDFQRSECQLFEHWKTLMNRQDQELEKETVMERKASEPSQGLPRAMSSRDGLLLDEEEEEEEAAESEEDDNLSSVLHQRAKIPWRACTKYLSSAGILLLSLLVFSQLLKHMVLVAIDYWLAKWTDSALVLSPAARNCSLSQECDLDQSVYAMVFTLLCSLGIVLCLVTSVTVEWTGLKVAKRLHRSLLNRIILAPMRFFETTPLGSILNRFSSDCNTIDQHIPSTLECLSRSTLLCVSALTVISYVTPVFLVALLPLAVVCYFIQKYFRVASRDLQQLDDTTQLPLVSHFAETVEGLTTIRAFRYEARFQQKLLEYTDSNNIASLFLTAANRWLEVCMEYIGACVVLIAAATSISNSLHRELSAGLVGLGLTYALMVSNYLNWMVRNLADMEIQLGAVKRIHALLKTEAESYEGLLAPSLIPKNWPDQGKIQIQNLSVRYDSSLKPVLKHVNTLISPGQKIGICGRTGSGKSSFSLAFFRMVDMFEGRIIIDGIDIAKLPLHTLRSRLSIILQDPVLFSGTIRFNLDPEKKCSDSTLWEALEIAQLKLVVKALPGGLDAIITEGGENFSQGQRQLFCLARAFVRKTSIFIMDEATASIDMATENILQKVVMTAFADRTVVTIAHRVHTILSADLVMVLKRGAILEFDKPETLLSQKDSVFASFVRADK
rat SUR2A, sequence (Q63563 whole entry): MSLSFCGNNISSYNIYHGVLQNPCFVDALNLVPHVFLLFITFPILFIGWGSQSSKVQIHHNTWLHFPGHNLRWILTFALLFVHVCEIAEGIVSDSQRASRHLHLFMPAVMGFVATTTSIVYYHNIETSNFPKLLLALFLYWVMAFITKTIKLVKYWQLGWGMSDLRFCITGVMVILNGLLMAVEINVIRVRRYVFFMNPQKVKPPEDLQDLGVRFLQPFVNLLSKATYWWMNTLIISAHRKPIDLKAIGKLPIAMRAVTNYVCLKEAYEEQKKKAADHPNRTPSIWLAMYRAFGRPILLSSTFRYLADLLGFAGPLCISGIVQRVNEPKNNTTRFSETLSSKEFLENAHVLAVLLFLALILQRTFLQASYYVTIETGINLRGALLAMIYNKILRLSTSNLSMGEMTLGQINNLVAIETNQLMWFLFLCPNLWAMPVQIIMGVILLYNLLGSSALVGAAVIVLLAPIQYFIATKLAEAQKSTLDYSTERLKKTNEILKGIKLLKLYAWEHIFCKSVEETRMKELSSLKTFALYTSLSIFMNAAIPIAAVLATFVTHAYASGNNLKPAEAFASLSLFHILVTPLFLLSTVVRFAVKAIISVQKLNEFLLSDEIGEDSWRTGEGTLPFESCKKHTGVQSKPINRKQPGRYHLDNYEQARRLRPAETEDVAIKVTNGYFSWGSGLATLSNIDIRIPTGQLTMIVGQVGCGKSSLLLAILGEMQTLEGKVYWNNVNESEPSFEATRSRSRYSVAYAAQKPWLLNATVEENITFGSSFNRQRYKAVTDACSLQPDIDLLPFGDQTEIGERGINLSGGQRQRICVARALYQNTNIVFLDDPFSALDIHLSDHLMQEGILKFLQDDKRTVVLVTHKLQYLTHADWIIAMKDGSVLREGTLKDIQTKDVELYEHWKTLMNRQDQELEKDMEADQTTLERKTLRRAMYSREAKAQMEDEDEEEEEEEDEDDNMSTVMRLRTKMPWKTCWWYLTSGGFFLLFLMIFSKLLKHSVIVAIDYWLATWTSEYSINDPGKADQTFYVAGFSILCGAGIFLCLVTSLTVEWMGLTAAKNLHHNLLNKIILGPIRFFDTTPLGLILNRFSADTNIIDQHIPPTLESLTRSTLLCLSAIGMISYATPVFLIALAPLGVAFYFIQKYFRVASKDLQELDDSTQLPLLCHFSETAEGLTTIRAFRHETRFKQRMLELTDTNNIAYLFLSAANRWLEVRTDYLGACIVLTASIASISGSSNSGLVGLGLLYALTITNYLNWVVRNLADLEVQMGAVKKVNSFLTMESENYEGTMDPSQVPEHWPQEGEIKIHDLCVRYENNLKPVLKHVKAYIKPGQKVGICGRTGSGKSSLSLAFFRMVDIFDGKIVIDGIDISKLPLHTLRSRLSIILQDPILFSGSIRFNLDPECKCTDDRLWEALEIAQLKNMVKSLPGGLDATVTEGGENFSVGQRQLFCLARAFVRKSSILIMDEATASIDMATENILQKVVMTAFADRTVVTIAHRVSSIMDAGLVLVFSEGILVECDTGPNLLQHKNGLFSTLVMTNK
human cannabinoid CB2 receptor, sequence (P34972 whole entry): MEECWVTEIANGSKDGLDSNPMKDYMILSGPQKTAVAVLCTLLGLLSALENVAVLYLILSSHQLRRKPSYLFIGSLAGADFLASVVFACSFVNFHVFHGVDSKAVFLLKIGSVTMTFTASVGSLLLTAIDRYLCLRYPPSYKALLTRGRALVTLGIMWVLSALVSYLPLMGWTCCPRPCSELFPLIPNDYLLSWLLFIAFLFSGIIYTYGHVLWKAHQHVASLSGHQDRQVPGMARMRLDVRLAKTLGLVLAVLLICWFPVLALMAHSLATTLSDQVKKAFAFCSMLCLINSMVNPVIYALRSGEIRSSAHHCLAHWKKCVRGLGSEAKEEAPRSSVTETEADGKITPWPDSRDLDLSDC

As a reminder, the pKi is −log10 of the Ki, conventionally taken in molar units. Higher therefore signals a small Ki. For `C[C@H](NS(C)(=O)=O)c1ccc(S(=O)(=O)c2ccc(Cl)cc2S(=O)(=O)c2ccccc2F)cc1` [N-(1-{4-[4-Chloro-2-(2-fluoro-benzenesulfonyl)-benzenesulfonyl]-phenyl}-ethyl)-methanesulfonamide, reference compound], the Ki in assay [1] is 0.000501 µM; in assay [2] (setting [4]) it was 1.26 µM. In addition, the pKi in assay [3] is reported as 4.7.

Turning to `CCc1c(C(=O)NC2CCCCC2)nc(-c2ccc(Cl)cc2Cl)n1-c1ccc(Br)cc1` [1-(4-Bromo-phenyl)-2-(2,4-dichloro-phenyl)-5-ethyl-1H-imidazole-4-carboxylic acid cyclohexylamide], the results for the Ki in assay [1] (setting [5]) and in assay [2] (setting [4]) were 0.2 µM and 100 µM, respectively. The pKi in assay [3] came out at 5.1.

Take `CC(C)(CO)CN/C(=N\S(=O)(=O)c1ccc(Cl)cc1)N1CC(c2ccccc2)C(c2ccc(Cl)cc2)=N1` (stereo not drawn) [4-Chloro-N-[[3-(4-chloro-phenyl)-4-phenyl-4,5-dihydro-pyrazol-1-yl]-(3-hydroxy-2,2-dimethyl-propylamino)-methylene]-benzenesulfonamide]: the values for the Ki in assay [1] (setting [5]) and in assay [2] (setting [4]) were 0.794 µM and 31.6 µM, respectively. The same molecule displayed a pKi in assay [3] of 5.4.

Turning to `O=S(=O)(N=C(NCc1cccnc1)N1CC(c2ccccc2)C(c2ccc(Cl)cc2)=N1)c1ccc(Cl)cc1` (stereo not drawn) [4-Chloro-N-{[3-(4-chloro-phenyl)-4-phenyl-4,5-dihydro-pyrazol-1-yl]-[(pyridin-3-ylmethyl)-amino]-methylene}-benzenesulfonamide], the figures for the Ki in assay [1] (setting [5]) and in assay [2] (setting [4]) were 0.501 µM and 1.26 µM, respectively. In assay [3], this molecule showed a pKi of 5.7.

As for `CCc1c(C(=O)NC2CCCCC2)nc(-c2ccc(C)n2C)n1-c1ccccc1` [2-(1,5-Dimethyl-1H-pyrrol-2-yl)-5-ethyl-1-phenyl-1H-imidazole-4-carboxylic acid cyclohexylamide], the values for the Ki in assay [1] (setting [5]) and in assay [2] (setting [4]) were 0.158 µM and 100 µM, respectively. Further, in assay [3] (rat SUR2A in COS cell membranes), the pKi is on record as 4.0.

Regarding `O=C(NN1CCCCC1)c1nc(-c2ccc(Cl)cc2Cl)n(-c2ccc(Cl)cc2)c1CO` [1-(4-Chloro-phenyl)-2-(2,4-dichloro-phenyl)-5-hydroxymethyl-1H-imidazole-4-carboxylic acid piperidin-1-ylamide], the Ki is 0.631 µM in assay [1] (setting [5]) and 100 µM in assay [2] (setting [4]). The pKi in assay [3] is given as 4.7.

On to `N=C(N)C1=NN(c2ccc(Cl)cc2)C(c2ccccc2)C1` (stereo not drawn) [1-(4-Chloro-phenyl)-5-phenyl-4,5-dihydro-1H-pyrazole-3-carboxamidine], for which the Ki in assay [1] (setting [5]) is 0.501 µM; in assay [2] (setting [4]), 100 µM. Besides, in assay [3], the pKi was 4.0.

Consider `Cc1c(C(=O)NN2CCCCC2)nc(-c2ccc(Cl)cc2Cl)n1-c1ccccn1` [2-(2,4-Dichloro-phenyl)-5-methyl-1-pyridin-2-yl-1H-imidazole-4-carboxylic acid piperidin-1-ylamide], for which the Ki in assay [1] (setting [5]) was 0.631 µM; in assay [2] (setting [4]), 100 µM. The molecule further showed a pKi in assay [3] of 4.1.

As to `O=C(NN1CCCCC1)C1=NN(c2ccc(Cl)cc2Cl)C(c2ccc(Cl)cc2)C1` (stereo not drawn) [5-(4-Chloro-phenyl)-1-(2,4-dichloro-phenyl)-4,5-dihydro-1H-pyrazole-3-carboxylic acid piperidine-1-ylamide], the Ki is 0.794 µM in assay [1] (setting [5]) and 3.98 µM in assay [2] (setting [4]). The same molecule had a pKi in assay [3] of 5.6.

Turning to `CSc1c(C(=O)NN2CCCCC2)nc(-c2ccc(Cl)cc2Cl)n1-c1ccc(Cl)cc1` [1-(4-Chloro-phenyl)-2-(2,4-dichloro-phenyl)-5-methylsulfanyl-1H-imidazole-4-carboxylic acid piperidin-1-ylamide], the Ki in assay [1] (setting [5]) is 1 µM; in assay [2] (setting [4]), 7.94 µM. For the same molecule, the pKi in assay [3] is recorded as 5.6.

As for `O=C(NN1CCCCC1)c1cn(-c2ccc(Cl)cc2)c(-c2ccc(Cl)cc2Cl)n1` [1-(4-Chloro-phenyl)-2-(2,4-dichloro-phenyl)-1H-imidazole-4-carboxylic acid piperidin-1-ylamide], the Ki in assay [1] (setting [5]) is 0.631 µM; in assay [2] (setting [4]), 31.6 µM. For the same molecule, in assay [3], the pKi amounted to 5.3.

Consider `N/C(=N\S(=O)(=O)c1ccc(Cl)cc1)N1C[C@@H](c2ccccc2)C(c2ccc(Cl)cc2)=N1` (stereo in doubt) [N-{Amino-[3-(4-chloro-phenyl)-4-phenyl-4,5-dihydro-pyrazol-1-yl]-methylene}-4-chloro-benzenesulfonamide], for which the figures for the Ki in assay [1] and in assay [2] (setting [4]) were 0.158 µM and 0.794 µM, respectively. The molecule also came in with a pKi in assay [3] of 5.4.

Regarding `CCc1c(C(=O)NN2CCCCC2)nc(-c2ccc(Cl)cc2Cl)n1-c1ccc(Cl)cc1` [1-(4-Chloro-phenyl)-2-(2,4-dichloro-phenyl)-5-ethyl-1H-imidazol-4-carboxylic acid piperidin-1-ylamide], the Ki in assay [1] is 0.501 µM; in assay [2] (setting [4]) it was 5.01 µM. In assay [3], this molecule registered a pKi of 5.5.

On to `Cc1c(C=C(c2cc(F)cc(F)c2)S(C)(=O)=O)nn(-c2ccc(Cl)cc2Cl)c1-c1ccc(Br)cc1` [5-(4-Bromo-phenyl)-1-(2,4-dichloro-phenyl)-3-(2-(3,5-difluoro-phenyl)-2-methanesulfonyl-vinyl]-4-methyl-1H-pyrazole], for which the Ki was 1.26 µM in assay [1] (setting [5]) and 100 µM in assay [2] (setting [4]). Moreover, the pKi in assay [3] is given as 4.0.

On to `CNC(=NS(=O)(=O)N1CCCCC1)N1CC(c2cccc(F)c2)C(c2ccc(Cl)cc2)=N1` (stereo not drawn) [Piperidine-1-sulfonic acid [3-(4-chloro-phenyl)-4-(3-fluoro-phenyl)-4,5-dihydro-pyrazol-1-yl]-methylamino-methyleneamide], for which the Ki in assay [1] (setting [5]) was 0.794 µM; in assay [2] (setting [4]) it was 31.6 µM. In addition, in assay [3], the pKi amounted to 6.3.

As to `O=C(NN1CCCCC1)c1nc(-c2ccc(Cl)cc2Cl)n(-c2ccc(Cl)cc2)c1CF` [1-(4-Chloro-phenyl)-2-(2,4-dichloro-phenyl)-5-fluoromethyl-1H-imidazole-4-carboxylic acid piperidin-1-ylamide], the Ki in assay [1] (setting [5]) was 0.794 µM; in assay [2] (setting [4]), 6.31 µM. In assay [3], this molecule yielded a pKi of 5.5.

`NC(Cc1ccc(Cl)c(Cl)c1)C(=O)N1CC(c2ccccc2)C(c2ccc(Cl)cc2)=N1` (stereo not drawn) [2-Amino-1-[3-(4-chloro-phenyl)-4-phenyl-4,5-dihydro-pyrazol-1-yl]-3-(3,4-dichloro-phenyl)-propan-1-one]: the figures for the Ki in assay [1] (setting [5]) and in assay [2] (setting [4]) were 0.631 µM and 3.98 µM, respectively. Moreover, in assay [3], the pKi was 4.8.

As to `CCc1c(C(=O)NC2CCCCC2)nc(-c2ncccc2C)n1-c1ccc(Cl)cc1` [1-(4-Chloro-phenyl)-5-ethyl-2-(3-methyl-pyridin-2-yl)-1H-imidazole-4-carboxylic acid cyclohexylamide], the Ki in assay [1] is 0.794 µM; in assay [2], 100 µM. In assay [3], this molecule registered a pKi of 5.5.

With `NC(=NS(=O)(=O)c1ccc(Cl)cc1)N1CC(c2ccccc2)C(c2ccc(Cl)cc2)=N1` (stereo not drawn) [N-{Amino-[3-(4-chloro-phenyl)-4-phenyl-4,5-dihydro-pyrazol-1-yl]-methylene}-4-chloro-benzenesulfonamide], the results for the Ki in assay [1] and in assay [2] (setting [4]) were 0.398 µM and 1 µM, respectively. Further, the negative logarithm of the Ki (pKi) in assay [3] turned out to be 5.1.
